Experimental data taken from ChEMBL document CHEMBL3774345, “Synthesis of new diarylamides with pyrimidinyl pyridine scaffold and evaluation of their anti-proliferative effect on cancer cell lines” (Bioorg Med Chem Lett, 2016).

Tests used:
Format in all cases: functional
[1] = system: EKVX; assay: Cytotoxicity against human EKVX cells assessed as cell growth at 10^-8 M after 24 hrs by SRB assay; conditions: read-out: Activity
[2] = Cytotoxicity against human HCC2998 cells assessed as cell growth at 10^-6 M after 24 hrs by SRB assay; conditions: HCC 2998, 24 h, read-out: Activity
[3] = Cytotoxicity against human SF539 cells assessed as cell growth at 10^-4 M after 24 hrs by SRB assay; conditions: SF-539, 24 h, read-out: Activity

Compound `O=C(Nc1cc(-c2cccnc2)nc(NCCCN2CCOCC2)n1)c1cc(Br)cc(C(F)(F)F)c1` has a growth at 0.01 µM [1] of 92%, a growth at 1 µM [2] of 92% and a growth at 100 µM [3] of -85%.
